Patent US4730068A, “Tumor retarding (1,2-diphenyl-ethylenediamine)-platinum(II)-complexes” (Asta-Werke Aktiengesellschaft, priority 1985, dated 1988)

What was measured:
[1] = tested on: DMBA-induced hormone dependent rat mammary carcinoma; experiment: DMBA-induced hormone dependent mammary carcinoma of the rat; assay type: in vivo; details: 3×6.5 mg/kg body weight/week
Description: Mouse leukemia P388, hormone independent human breast cancer cell line MDA-MB 231, hormone dependent human breast cancer cell line MCF7, hormone dependent mouse mammary carcinoma MXT, DMBA induced hormone dependent rat mammary carcinoma (DMBA is dimethylbenz[a]-anthracene).
For example on the mammary cancer of the rat, which was induced by 7, 12-dimethylbenz [a]-anthracene (DMBA), with the compound of Example 18 at a dosage of 3×6.5 mg/kg body weight/week there was determined with 88% of the tumors a complete remission. In the testing on the hormone independent human mammary tumor cell line MDA-MB 231 the compounds of the invention show for example in vitro in concentrations between 10^-5 and 10^-7 moles/liter a 50% inhibition of the growth of this cell line. The inhibition of [^3 H]-thymidine incorporation is of the same order of magnitude. The compounds of the invention act on the lymphocytic leukemia P388 (mouse) for example in dosages between 10 and 50 mg/kg (intraperitoneal application).

water solubility = assay type: physicochemical

solubility in water (water solubility) | Compound | tumors with complete remission [1] [%]
– | NC(c1c(Cl)cc(O)cc1Cl)C(N)c1c(Cl)cc(O)cc1Cl.[Cl-].[Cl-].[Pt+2] (stereo not drawn) [Example 18, meso-1,2-bis(2,6-dichloro-4-hydroxyphenyl)-ethylenediamine-dichloro-platinum(II)] | 88
soluble in water | Diaquo-meso-1,2-bis(2,6-dichloro-4-hydroxyphenyl)-ethylene-diamine-platinum(II)-sulfate [Example 34] | –
